Measured values reported in patent US10053447B2, “Fluorescent compounds” (Pierce Biotechnology, Inc, priority 2010, dated 2018).

How the values were obtained:
[1] = Spectral properties of the dyes compared with commercially available dyes; type: physicochemical; settings: reactive ester form of the dye
[2] = system: IMR90 cells; experiment: Direct fluorescence labeling of cell surface proteins; type: cell-based, human; settings: 6 μm, 3 μm, 1.5 μm, and 0.75 μm as printed; 30 min
Protocol: The inventive compounds and commercial dyes were evaluated in direct fluorescence labeling of cell surface proteins using the following protocol. DyLight 549-NHS, 550 Compound 1-NHS, and Whole Cell Stain Orange (Thermo Fisher Scientific) were reconstituted in DMF and diluted to 6 μM in Dulbecco's PBS (DPBS). A total of four 1:1 serial dilutions of the dyes were prepared in DPBS. Frozen IMR90 cells (human lung embryonic fibroblast) on a plate were thawed for 1 h at 37° C. The cell plates were washed two times with DPBS and incubated with dye dilutions for 30 min at room temperature protected from light. The cell plates were then washed three times with DPBS. The cell plates were incubated with 100 μl/well of 1 μg/ml Hoechst dye in DPBS. The cell plates were sealed and imaged using the Thermo Scientific ArrayScan VTI HCS Reader.
The inventive compounds and commercial dye were evaluated in direct fluorescence labeling of cell surface proteins. DyLight 649-NHS, 650 Compound 1-NHS, and Whole Cell Stain Orange (Thermo Fisher Scientific) were reconstituted in DMF and diluted to 6 μM in Dulbecco's PBS (DPBS). A total of four 1:1 serial dilutions of the dyes were prepared in DPBS. Frozen IMR90 cells (human lung embryonic fibroblast) on a plate were thawed for 1 h at 37° C. […] The cell plates were sealed and imaged using the Thermo Scientific ArrayScan VTI HCS Reader.

[3] = molecular target: T1, streptavidin (SA) (Streptomyces avidinii, UniProt P22629); experiment: Labeling efficiency (degree of labeling, mole dye to mole protein ratio) of streptavidin; settings: SA, NHS ester, 5X molar excess
Protocol: Inventive and commercial compounds, each as the NHS ester, were conjugated to goat anti-mouse (GAM), goat anti-rabbit (GAR) antibodies, and streptavidin (SA). GAM, GAR, and SA, at 10 mg/ml in phosphate buffered saline (PBS), were dialyzed against 50 mM borate buffer, pH 8.5. The compounds were reconstituted in dimethylformamide (DMF) at 10 mg/ml and combined at 2×, 4×, 5×, 7.5×, or 10× molar excess with GAM, GAR, or SA for 2 h at room temperature to label the antibodies or SA.
The labeled compounds, also termed dyes or labels, were subjected to PDDR to remove the unlabeled (free) compound; 100 μl of the packed resin was used per mg of protein purified. The purified antibody-labeled dyes were then diluted 1:50 in PBS and scanned for absorbance from 700 nm to 230 nm to determine the protein concentration, and to determine the mole dye to mole protein ratio. Each conjugate was diluted 1:10 in 50% glycerol and heated in the presence of 10 mM dithiothreitol (DTT) for 5 min at 95° C., then separated by electrophoresis on polyacrylamide gels in the presence of sodium dodecyl sulfate (SDS-PAGE). The gels were scanned using the Typhoon 9400 Imager to verify removal of the unconjugated compound. Labeling efficiency was compared, with results showing degree of labeling below.
Compounds 1, 2, and 3, each as the NHS ester, and DyLight 649-NHS were conjugated to goat anti-mouse (GAM) and goat anti-rabbit (GAR) antibodies. GAM and GAR, at a concentration of 10 mg/ml in phosphate buffered saline (PBS), were dialyzed against 50 mM borate buffer, pH 8.5. The compounds were reconstituted in dimethylformamide (DMF) at 10 mg/ml. To label the antibodies, the compounds were added at 2.5× molar excess and 5× molar excess for 2 h at room temperature. Streptavidin (SA) was reconstituted in PBS buffer, pH 7.2, and 50 mM borate buffer, pH 8.5, and labeled with 2.5× molar excess and 4× molar excess of the compound.
The antibody-labeled compounds, also termed dyes or labels, were subjected to gel filtration chromatography (15 cm×0.8 cm columns) or to the PDDR to remove the unlabeled (free) compound; 100 μl of the packed resin was used per mg of protein purified. The purified antibody-labeled dyes were then diluted 1:100 in PBS and scanned for absorbance from 700 nm to 230 nm to determine the protein concentration, and to determine the mole dye to mole protein ratio. Each conjugate was diluted 1:10 in 50% glycerol and heated in the presence of 10 mM dithiothreitol (DTT) for 5 min at 95° C., then separated by electrophoresis on polyacrylamide gels in the presence of sodium dodecyl sulfate (SDS-PAGE). The gels were scanned using the Typhoon 9400 Imager to verify removal of the unconjugated compound. Labeling efficiency was compared using labeling of the compounds to GAM antibody at a 2.5× molar excess of compound, with results shown below.
Labeling efficiency was also compared using labeling of the dyes to streptavidin (SA) at either a 2.5 fold or a 4 fold molar excess of the dye, with SA in PBS, pH 7.2, and borate buffer, pH 8.5.
650 Compound 1 (isomer 2)-TFP, 650 Compound 1 (isomer 1)-TFP, 650 Compound 1 (isomer 2)-TFP, 650 Compound 1-NHS, and DyLight 649-NHS were conjugated to GAM, GAR, and SA. GAM and GAR, at a concentration of 10 mg/ml in phosphate buffered saline (PBS), were dialyzed against 50 mM borate buffer, pH 8.5. The compounds were reconstituted in dimethylformamide (DMF) at 10 mg/ml and used to label antibodies at 5× molar excess of compound for two hours at room temperature to label the antibodies. SA was reconstituted in 50 mM borate buffer, pH 8.5, and combined with 4× molar excess to label the SA.
The antibody-conjugated and SA-conjugated compounds, also termed dyes or labels, were subjected to the PDDR to remove the unlabeled (free) compound. The purified antibodies and SA were then diluted 1:25 in PBS and scanned for absorbance from 700 nm to 230 nm to determine the protein concentration, and to determine the mole dye to mole protein ratio. […]

[4] = molecular target: T1, streptavidin (SA); experiment: as above; settings: NHS ester, 3X molar excess

Emission (Em) [1]	Excitation (Ex) [1]	ε [1]	Molecule	Performance in direct fluorescence labeling of cell surface proteins [2]	D/P 5X [3]	D/P 3X [4]
572 nm	557 nm	142,000 M−1cm−1	COCCN1/C(=C/C=C/C2=[N+](CCCCCC(=O)ON3C(=O)CCC3=O)c3ccc(S(=O)(=O)[O-])cc3C2(C)CCCS(=O)(=O)O)C(C)(CCCS(=O)(=O)O)c2cc(S(=O)(=O)O)ccc21 (centres unmarked) [550 Compound 1-NHS]	performed equivalently as DyLight 549-NHS	–	–
–	–	–	DyLight 750-SA: DyLight 750 conjugated to streptavidin (SA) [reference compound]	–	4.0	2.5
–	–	–	Alexa 750-SA: Alexa 750 conjugated to streptavidin (SA) [reference compound]	–	4.7	3.3
